Laboratory results published in article PMC11549994, “A dTDP-L-rhamnose 4-epimerase required for glycopeptidolipid biosynthesis in Mycobacterium abscessus” (The Journal of Biological Chemistry, 2024).
Read-outs that look alike come from different tables or passages of the source.

Assays:
[1] = test system: T1, M. abscessus CIP104536T (S); assay: microbe, parasite or virus in culture; set-up: species or system Mycobacteroides abscessus CIP104536T; antibiotic susceptibility testing, MIC of drugs against M. abscessus strains; conditions: Mycobacteroides abscessus, read-out: MIC (µg/mL) (phenotypea) / S
T1 construct: CIP104536T smooth (S) morphotype
Experimental: (§1) M. abscessus CIP104536^T (S) and CIP104536^T (R) strains used in this study were previously sequenced and their genomic differences identified and characterized ([13], [60]). Mycobacteria were grown in Middlebrook 7H9 broth (BD) supplemented with 0.025% tyloxapol and 10% oleic acid-albumin-dextrose-catalase (OADC) enrichment (7H9^OADC) or on Middlebrook 7H10 agar (BD) containing 10% OADC (7H10^OADC) at 37 °C, with antibiotics when required. A Bio-Rad Gene pulser (25 μF, 2500 V, 800 Ω) was used to transform electrocompetent mycobacteria. After transformation, strains carrying the pMV306 ([48]) derivatives were selected on 250 μg/ml kanamycin.

[2] = test system: T2, M. abscessus CIP104536T (R); assay: microbe, parasite or virus in culture; set-up: species or system Mycobacteroides abscessus CIP104536T; antibiotic susceptibility testing, MIC of drugs against M. abscessus strains; conditions: Mycobacteroides abscessus, read-out: MIC (µg/mL) (phenotypea) / R
T2 construct: CIP104536T rough (R) morphotype
Experimental: as §1

[3] = test system: T2, M. abscessus CIP104536T (R); assay: microbe, parasite or virus in culture; set-up: species or system Mycobacteroides abscessus CIP104536T; antibiotic susceptibility testing, MIC of drugs against M. abscessus strains; conditions: Mycobacteroides abscessus, read-out: MIC (µg/mL) (phenotypea) / R; remark: listed apart in the source
Experimental: as §1

[4] = test system: T1, M. abscessus CIP104536T (S); assay: microbe, parasite or virus in culture; set-up: species or system Mycobacteroides abscessus CIP104536T; antibiotic susceptibility testing, MIC of drugs against M. abscessus strains; conditions: Mycobacteroides abscessus, read-out: MIC (µg/mL) (phenotypea) / S; remark: listed apart in the source
Experimental: as §1

MAB_4111c (Tle) = target: T3, MAB_4111c (Tle) (Mycobacteroides abscessus, UniProt B1MIG3); assay: reverse reaction, formation of dTDP-Rha (data not shown); type: biochemical; conditions: 60 min, also the product of the forward reaction, partially purified Ni-bead fraction
T3 construct: full-length, 353 residues, six-histidine tag from pET30 (kept), expressed in E. coli BL21 Star DE3; partially purified Ni-bead-enriched fraction
T3 sequence (B1MIG3 entry or part of it): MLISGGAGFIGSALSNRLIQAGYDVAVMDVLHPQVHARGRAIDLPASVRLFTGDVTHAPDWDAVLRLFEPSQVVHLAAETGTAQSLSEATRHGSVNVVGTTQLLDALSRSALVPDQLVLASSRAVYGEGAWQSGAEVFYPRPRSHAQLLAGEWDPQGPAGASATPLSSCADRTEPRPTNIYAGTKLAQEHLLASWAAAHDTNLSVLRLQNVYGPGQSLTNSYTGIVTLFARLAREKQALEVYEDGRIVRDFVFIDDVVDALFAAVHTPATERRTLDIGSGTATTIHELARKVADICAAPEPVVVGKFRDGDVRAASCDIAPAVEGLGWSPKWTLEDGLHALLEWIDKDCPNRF

SMILES | MIC [1] [µg/mL] | MIC [2] [µg/mL] | MIC [3] [µg/mL] | MIC [4] [µg/mL] | reverse reaction, formation of dTDP-Rha (data not shown) (MAB_4111c (Tle))
NCC[C@H](O)C(=O)N[C@@H]1C[C@H](N)[C@@H](O[C@H]2O[C@H](CN)[C@@H](O)[C@H](O)[C@H]2O)[C@H](O)[C@H]1O[C@H]1O[C@H](CO)[C@@H](O)[C@H](N)[C@H]1O [Amikacin] | 16 | 32 |  |  | 
CO/N=C(\C(=O)N[C@@H]1C(=O)N2C(C(=O)[O-])=C(C[N+]3(C)CCCC3)CS[C@H]12)c1csc(N)n1 [Cefepime] | > 32 | > 32 |  |  | 
CO[C@@]1(NC(=O)Cc2cccs2)C(=O)N2C(C(=O)O)=C(COC(N)=O)CS[C@@H]21 [Cefoxitin] | 64 | 128 |  |  | 
CO/N=C(\C(=O)N[C@@H]1C(=O)N2C(C(=O)O)=C(CSc3nc(=O)c(O)nn3C)CS[C@H]12)c1csc(N)n1 [Ceftriaxone] | > 64 | > 64 |  |  | 
CC[C@H]1OC(=O)[C@H](C)[C@@H](O[C@H]2C[C@@](C)(OC)[C@@H](O)[C@H](C)O2)[C@H](C)[C@@H](O[C@@H]2O[C@H](C)C[C@H](N(C)C)[C@H]2O)[C@](C)(OC)C[C@@H](C)C(=O)[C@H](C)[C@@H](O)[C@]1(C)O [Clarithromycin] | 8 | 4 | > 16 | > 16 | 
C[C@H]1c2cccc(O)c2C(=O)C2=C(O)[C@]3(O)C(=O)C(C(N)=O)=C(O)[C@@H](N(C)C)[C@@H]3[C@@H](O)[C@@H]21 [Doxycycline] | > 16 | > 16 |  |  | 
C[C@@H](O)[C@H]1C(=O)N2C(C(=O)O)=C(SCCNC=N)C[C@H]12 [Imipenem] | 64 | 64 |  |  | 
CC(=O)NC[C@H]1CN(c2ccc(N3CCOCC3)c(F)c2)C(=O)O1 [Linezolid] | 32 | 32 |  |  | 
CN(C)c1ccc(O)c2c1C[C@H]1C[C@H]3[C@H](N(C)C)C(O)=C(C(N)=O)C(=O)[C@@]3(O)C(O)=C1C2=O [Minocycline] | > 8 | > 8 |  |  | 
COc1c(N2C[C@@H]3CCCN[C@@H]3C2)c(F)cc2c(=O)c(C(=O)O)cn(C3CC3)c12 [Moxifloxacin] | > 8 | > 8 |  |  | 
CO[C@H]1/C=C/O[C@@]2(C)Oc3c(C)c(O)c4c(c3C2=O)C2=NC3(CCN(CC(C)C)CC3)NC2=C(NC(=O)/C(C)=C\C=C\[C@H](C)[C@H](O)[C@@H](C)[C@@H](O)[C@@H](C)[C@H](OC(C)=O)[C@@H]1C)C4=O [Rifabutin] | 64 | 16 |  |  | 
CN(C)c1cc(NC(=O)CNC(C)(C)C)c(O)c2c1C[C@H]1C[C@H]3[C@H](N(C)C)C(O)=C(C(N)=O)C(=O)[C@@]3(O)C(O)=C1C2=O [Tigecycline] | 0.5 | 1 |  |  | 
NC[C@H]1O[C@H](O[C@H]2[C@H](O)[C@@H](O[C@H]3O[C@H](CO)[C@@H](O)[C@H](N)[C@H]3O)[C@H](N)C[C@@H]2N)[C@H](N)C[C@@H]1O [Tobramycin] | 16 | 16 |  |  | 
Cc1cn([C@H]2C[C@H](O)[C@@H](COP(=O)(O)OP(=O)(O)O[C@H]3O[C@@H](C)[C@@H](O)[C@@H](O)[C@H]3O)O2)c(=O)[nH]c1=O [dTDP-6-d-Tal] |  |  |  |  | reverse reaction using dTDP-6-d-Tal as a substrate and observed the formation of dTDP-Rha
